Key:
[1] = tested on: human airway epithelial cells (HAECs); assay: Agilent miRNA chips, miRNA expression at four stages of differentiation of HAECs; conditions: for Modulation (ratio of the level of intensity of expression in log2 in two stages of differentiation) measured with the Agilent chips, D7 − D0 / Modulation (ratio of the level of intensity of expression in log2 in two stages of differentiation) measured with the Agilent chips, FC − D7 / Modulation (ratio of the level of intensity of expression in log2 in two stages of differentiation) measured with the Agilent chips, WD − D0 / Modulation (ratio of the level of intensity of expression in log2 in two stages of differentiation) measured with the Agilent chips, WD − FC / Level of intensity of expression in log2 measured with the Agilent chips, D0 / Level of intensity of expression in log2 measured with the Agilent chips, D7 / Level of intensity of expression in log2 measured with the Agilent chips, FC / Level of intensity of expression in log2 measured with the Agilent chips, WD: Table VI; for Level of intensity of expression in log2 measured with the Agilent chips, D0: stage D0; for Level of intensity of expression in log2 measured with the Agilent chips, D7: stage D7; for Level of intensity of expression in log2 measured with the Agilent chips, FC: stage FC; for Level of intensity of expression in log2 measured with the Agilent chips, WD: stage WD; for Modulation (ratio of the level of intensity of expression in log2 at two stages of differentiation), FC − D7 / Modulation (ratio of the level of intensity of expression in log2 at two stages of differentiation), WD − FC: Agilent miRNA chips, Table V
Procedure, shortened: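 To benchmark sequencing, the microRNAome was also profiled by hybridizing labelled RNA from identical patient samples to v2 arrays with miRBase v.12.0 human content (866 miRNAs) and 89 viral miRNAs.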

[2] = tested on: basal cells and pyramidal cells of the airway epithelium; assay: miRNA expression in sorted basal cells versus pyramidal cells (ciliated + secretory), HTS and Agilent chips; parameters: species or system human; conditions: for Modulation of expression of the miRNAs in pyramidal cells (323(−)) relative to basal cells 323(+): HTS and Agilent chips; for Intensity of the level of expression in log2 in pyramidal cells (323(−)): pyramidal cells (ciliated + secretory)
Procedure, shortened: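 Sorted basal versus ciliated/mucus-secreting cells; markers CD151 and tissue factor; donors n=3; miRNA by Agilent chip or HTS.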

[3] = tested on: human airway epithelial cells (HAECs); assay: High-throughput sequencing (HTS) of miRNAs at four stages of differentiation of HAECs; conditions: for Modulation (ratio of the level of intensity of expression in log2 in two stages of differentiation) measured by high-throughput sequencing, D7 − D0 / Modulation (ratio of the level of intensity of expression in log2 in two stages of differentiation) measured by high-throughput sequencing, FC − D7 / Modulation (ratio of the level of intensity of expression in log2 in two stages of differentiation) measured by high-throughput sequencing, WD − D0 / Modulation (ratio of the level of intensity of expression in log2 in two stages of differentiation) measured by high-throughput sequencing, WD − FC / Level of intensity of expression in log2 measured by high-throughput sequencing, D0 / Level of intensity of expression in log2 measured by high-throughput sequencing, D7 / Level of intensity of expression in log2 measured by high-throughput sequencing, FC / Level of intensity of expression in log2 measured by high-throughput sequencing, WD: Table VI; for Modulation (ratio of the level of intensity of expression in log2 in two stages of differentiation), D7 − D0 / Modulation (ratio of the level of intensity of expression in log2 in two stages of differentiation), FC − D7 / Modulation (ratio of the level of intensity of expression in log2 in two stages of differentiation), WD − FC / Abundance (%), D0 / Abundance (%), D7 / Abundance (%), FC / Abundance (%), WD: HTS; for Abundance (%), D0: ALI-D0; for Abundance (%), D7: ALI-D7; for Abundance (%), FC: ALI-FC; for Abundance (%), WD: ALI-WD; for Level of intensity of expression in log2 At the differentiated stage (WD) measured in HTS: healthy human airway epithelial tissue; for Level of intensity of expression in log2 measured by high-throughput sequencing, D0: stage D0; for Level of intensity of expression in log2 measured by high-throughput sequencing, D7: stage D7; for Level of intensity of expression in log2 measured by high-throughput sequencing, FC: stage FC; for Level of intensity of expression in log2 At the differentiated stage (WD) measured in HTS / Level of intensity of expression in log2 measured by high-throughput sequencing, WD: stage WD
Procedure, shortened: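 Differentiation time course at air-liquid interface: 0, 7, ~14 (first cilia) and ~21 days (fully differentiated). Sequencing counts per strand were normalized to 10^6 sequences and analysed by linear model with empirical Bayesian moderation.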

Substance	Modulation (ratio of the level of intensity of expression in log2 in two stages of differentiation) measured with the Agilent chips, D7 − D0 [1] [log2]	Modulation (ratio of the level of intensity of expression in log2 in two stages of differentiation) measured with the Agilent chips, FC − D7 [1] [log2]	Modulation (ratio of the level of intensity of expression in log2 in two stages of differentiation) measured with the Agilent chips, WD − D0 [1] [log2]	Modulation (ratio of the level of intensity of expression in log2 in two stages of differentiation) measured with the Agilent chips, WD − FC [1] [log2]	Level of intensity of expression in log2 measured with the Agilent chips, D0 [1] [log2]	Level of intensity of expression in log2 measured with the Agilent chips, D7 [1] [log2]	Level of intensity of expression in log2 measured with the Agilent chips, FC [1] [log2]	Level of intensity of expression in log2 measured with the Agilent chips, WD [1] [log2]	Modulation of expression of the miRNAs in pyramidal cells (323(−)) relative to basal cells 323(+) [2]	Intensity of the level of expression in log2 in basal cells (323(+)) [2] [log2]	Intensity of the level of expression in log2 in pyramidal cells (323(−)) [2] [log2]	Modulation (ratio of the level of intensity of expression in log2 in two stages of differentiation) measured by high-throughput sequencing, D7 − D0 [3] [log2]	Modulation (ratio of the level of intensity of expression in log2 in two stages of differentiation) measured by high-throughput sequencing, FC − D7 [3] [log2]	Modulation (ratio of the level of intensity of expression in log2 in two stages of differentiation) measured by high-throughput sequencing, WD − D0 [3] [log2]	Modulation (ratio of the level of intensity of expression in log2 in two stages of differentiation) measured by high-throughput sequencing, WD − FC [3] [log2]	Level of intensity of expression in log2 At the differentiated stage (WD) measured in HTS [3] [log2]	Level of intensity of expression in log2 measured by high-throughput sequencing, D0 [3] [log2]	Level of intensity of expression in log2 measured by high-throughput sequencing, D7 [3] [log2]	Level of intensity of expression in log2 measured by high-throughput sequencing, FC [3] [log2]	Level of intensity of expression in log2 measured by high-throughput sequencing, WD [3] [log2]	also measured
hsa-miR-378: human miRNA, SEQ ID No. 43 (ACUGGACUUGGAGUCAGAAGG; expressed or natural sequence; listed as Homo sapiens)	3.23	−0.81	2.16	−0.26	4.38	7.61	6.80	6.54	−2.43	4.11	1.68	2.15	−0.26	1.50	−0.39	11.70	10.37	12.53	12.26	11.87	Modulation (ratio of the level of intensity of expression in log2 in two stages of differentiation), D7 − D0 [3]: 2.15 log2; Modulation (ratio of the level of intensity of expression in log2 in two stages of differentiation), FC − D7 [3]: −0.26 log2; Modulation (ratio of the level of intensity of expression in log2 in two stages of differentiation), WD − FC [3]: −0.39 log2; Abundance (%), D0 [3]: 0.29%; Abundance (%), D7 [3]: 1.30%; Abundance (%), FC [3]: 1.04%; Abundance (%), WD [3]: 0.61%
hsa-miR-425: human miRNA, SEQ ID No. 44 (AAUGACACGAUCACUCCCGUUGA; expressed or natural sequence; listed as Homo sapiens)	1.59	0.19	1.57	−0.21	6.61	8.21	8.39	8.18	0.70	4.52	5.22	0.42	0.74	1.12	−0.04	9.53	10.58	11.01	11.75	11.70	Modulation (ratio of the level of intensity of expression in log2 at two stages of differentiation), FC − D7 [1]: 0.19 log2; Modulation (ratio of the level of intensity of expression in log2 at two stages of differentiation), WD − FC [1]: −0.21 log2
hsa-miR-429: human miRNA, SEQ ID No. 45 (UAAUACUGUCUGGUAAAACCGU; expressed or natural sequence; listed as Homo sapiens)	1.71	0.14	1.95	0.10	7.97	9.68	9.82	9.93	−0.31	6.92	6.61	0.42	0.14	1.30	0.74	15.11	8.23	8.65	8.79	9.53	Modulation (ratio of the level of intensity of expression in log2 at two stages of differentiation), FC − D7 [1]: 0.14 log2; Modulation (ratio of the level of intensity of expression in log2 at two stages of differentiation), WD − FC [1]: 0.10 log2
hsa-miR-449a: human miRNA, SEQ ID No. 46 (UGGCAGUGUAUUGUUAGCUGGU; expressed or natural sequence; listed as Homo sapiens)	6.53	5.70	12.08	−0.15	1.47	8.00	13.70	13.54	6.07	2.81	8.88	5.21	5.21	10.63	0.21	12.24	4.48	9.69	14.90	15.11	Modulation (ratio of the level of intensity of expression in log2 at two stages of differentiation), FC − D7 [1]: 5.70 log2; Modulation (ratio of the level of intensity of expression in log2 at two stages of differentiation), WD − FC [1]: −0.15 log2; Modulation (ratio of the level of intensity of expression in log2 in two stages of differentiation), D7 − D0 [3]: 5.21 log2; Modulation (ratio of the level of intensity of expression in log2 in two stages of differentiation), FC − D7 [3]: 5.21 log2; Modulation (ratio of the level of intensity of expression in log2 in two stages of differentiation), WD − FC [3]: 0.21 log2; Abundance (%), D0 [3]: 0.00%; Abundance (%), D7 [3]: 0.18%; Abundance (%), FC [3]: 6.49%; Abundance (%), WD [3]: 5.70%

From patent US9023821B2, “Use of MicroRNA for treating diseases associated with a dysfunction of the cilia in multiciliated epithelial cells” (Centre National de la Recherche Scientifique, priority 2009, dated 2015)
